# ± gives the standard error.
# System: 621-102 (TSC2-deficient)
# Assay: relative viability vs DMSO; higher = less cytotoxic
# Conditions: 0.1 µM; serum: 10% FBS; 72 h
# 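Further: immortalized renal angiomyolipoma cells stably carrying empty vector or TSC2, dosed in 384-well plates in DMEM, viability normalized to vehicle-treated wells within each plate.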
row,Structure (SMILES),relative viability [%]
1,CC1(COc2ccc3c(c2)ncn3-c2ccc3cccc(N4CCC(N)CC4)c3n2)COC1,98.43 ± 0.71
2,CC1=NN(c2ccc(C)c(C)c2)C(=O)/C1=N\Nc1cccc(-c2cccc(C(=O)O)c2)c1O,108.4 ± 0.85
3,CN(C)C(=O)[C@H](O)[C@H](Cc1ccccc1)NC(=O)c1cc2cc(Cl)ccc2[nH]1,110 ± 5.4
4,CN(C)c1ccc(-c2nc3ncc(Cl)c(N4CCN(CC(=O)Nc5nccs5)CC4)c3[nH]2)cc1,105 ± 1.4
5,COCC(=O)NC/C=C/c1ccc2ncnc(Nc3ccc(Oc4ccc(C)nc4)c(C)c3)c2c1,93.9 ± 1.9
6,COc1cc2ncnc(-n3nc(-c4ccccn4)nc3N)c2cc1OC,98.84 ± 0.53
7,COc1ccc([C@]2(C#N)CC[C@@H](C(=O)O)CC2)cc1OC1CCCC1,102 ± 2.7
8,COc1ccnc2[nH]cc(C(=O)C(=O)N3CCN(C(=O)c4ccccc4)C[C@H]3C)c12,107 ± 2.7
9,C[C@@H]1CCN(C(=O)CC#N)C[C@@H]1N(C)c1ncnc2[nH]ccc12,109 ± 1.1
10,NC1(Cc2ccc(Cl)cc2)CCN(c2ncnc3[nH]ccc23)CC1,92.8 ± 5.6
11,O=C(NOCC1CC1)c1ccc(F)c(F)c1Nc1ccc(I)cc1Cl,97.3 ± 1.5
12,OC(CN1CCN(c2cccc(Cl)c2)CC1)C(c1ccccc1)c1ccccc1 (stereo not given),95.9 ± 2.9
13,COc1cc2c(cc1O)CC[C@@H]1[C@@H]2CC[C@]2(C)[C@@H](O)CC[C@@H]12 [2-Methoxyestradiol],107 ± 3.3
14,C=CCNC1=C2C[C@@H](C)C[C@H](OC)[C@H](O)[C@@H](C)/C=C(\C)[C@H](OC(N)=O)[C@@H](OC)/C=C\C=C(/C)C(=O)NC(=CC1=O)C2=O [17-AAG (Geldanamycin)],25.7 ± 0.57
15,CO[C@H]1/C=C\C=C(/C)C(=O)NC2=CC(=O)C(NCCN(C)C)=C(C[C@@H](C)C[C@H](OC)[C@H](O)[C@@H](C)/C=C(\C)[C@@H]1OC(N)=O)C2=O [17-DMAG],21.7 ± 0.8

# Same assay, conditions: 1 µM; serum: 10% FBS; 72 h
row,Structure (SMILES),relative viability [%]
1,CC1(COc2ccc3c(c2)ncn3-c2ccc3cccc(N4CCC(N)CC4)c3n2)COC1,67.8 ± 1.8
2,CC1=NN(c2ccc(C)c(C)c2)C(=O)/C1=N\Nc1cccc(-c2cccc(C(=O)O)c2)c1O,100.7 ± 0.44
3,CN(C)C(=O)[C@H](O)[C@H](Cc1ccccc1)NC(=O)c1cc2cc(Cl)ccc2[nH]1,89.6 ± 3.6
4,CN(C)c1ccc(-c2nc3ncc(Cl)c(N4CCN(CC(=O)Nc5nccs5)CC4)c3[nH]2)cc1,101 ± 4.3
5,COCC(=O)NC/C=C/c1ccc2ncnc(Nc3ccc(Oc4ccc(C)nc4)c(C)c3)c2c1,98.9 ± 2.8
6,COc1cc2ncnc(-n3nc(-c4ccccn4)nc3N)c2cc1OC,94.28 ± 0.36
7,COc1ccc([C@]2(C#N)CC[C@@H](C(=O)O)CC2)cc1OC1CCCC1,105 ± 1.7
8,COc1ccnc2[nH]cc(C(=O)C(=O)N3CCN(C(=O)c4ccccc4)C[C@H]3C)c12,86 ± 1.2
9,C[C@@H]1CCN(C(=O)CC#N)C[C@@H]1N(C)c1ncnc2[nH]ccc12,98.6 ± 2.7
10,NC1(Cc2ccc(Cl)cc2)CCN(c2ncnc3[nH]ccc23)CC1,77.3 ± 3.3
11,O=C(NOCC1CC1)c1ccc(F)c(F)c1Nc1ccc(I)cc1Cl,98.4 ± 1.5
12,OC(CN1CCN(c2cccc(Cl)c2)CC1)C(c1ccccc1)c1ccccc1 (stereo not given),102 ± 2.5
13,COc1cc2c(cc1O)CC[C@@H]1[C@@H]2CC[C@]2(C)[C@@H](O)CC[C@@H]12 [2-Methoxyestradiol],80 ± 2.5
14,C=CCNC1=C2C[C@@H](C)C[C@H](OC)[C@H](O)[C@@H](C)/C=C(\C)[C@H](OC(N)=O)[C@@H](OC)/C=C\C=C(/C)C(=O)NC(=CC1=O)C2=O [17-AAG (Geldanamycin)],23.2 ± 0.81
15,CO[C@H]1/C=C\C=C(/C)C(=O)NC2=CC(=O)C(NCCN(C)C)=C(C[C@@H](C)C[C@H](OC)[C@H](O)[C@@H](C)/C=C(\C)[C@@H]1OC(N)=O)C2=O [17-DMAG],26.3 ± 0.3

# Same assay, conditions: 10 µM; serum: 10% FBS; 72 h
row,Structure (SMILES),relative viability [%]
1,CC1(COc2ccc3c(c2)ncn3-c2ccc3cccc(N4CCC(N)CC4)c3n2)COC1,2.96 ± 0.37
2,CC1=NN(c2ccc(C)c(C)c2)C(=O)/C1=N\Nc1cccc(-c2cccc(C(=O)O)c2)c1O,83.7 ± 3.2
3,CN(C)C(=O)[C@H](O)[C@H](Cc1ccccc1)NC(=O)c1cc2cc(Cl)ccc2[nH]1,111.8 ± 0.78
4,CN(C)c1ccc(-c2nc3ncc(Cl)c(N4CCN(CC(=O)Nc5nccs5)CC4)c3[nH]2)cc1,49.3 ± 1.4
5,COCC(=O)NC/C=C/c1ccc2ncnc(Nc3ccc(Oc4ccc(C)nc4)c(C)c3)c2c1,93.2 ± 2.4
6,COc1cc2ncnc(-n3nc(-c4ccccn4)nc3N)c2cc1OC,49.6 ± 1.6
7,COc1ccc([C@]2(C#N)CC[C@@H](C(=O)O)CC2)cc1OC1CCCC1,98.6 ± 0.28
8,COc1ccnc2[nH]cc(C(=O)C(=O)N3CCN(C(=O)c4ccccc4)C[C@H]3C)c12,88.5 ± 5.7
9,C[C@@H]1CCN(C(=O)CC#N)C[C@@H]1N(C)c1ncnc2[nH]ccc12,104 ± 1.3
10,NC1(Cc2ccc(Cl)cc2)CCN(c2ncnc3[nH]ccc23)CC1,60.6 ± 1
11,O=C(NOCC1CC1)c1ccc(F)c(F)c1Nc1ccc(I)cc1Cl,81.4 ± 0.87
12,OC(CN1CCN(c2cccc(Cl)c2)CC1)C(c1ccccc1)c1ccccc1 (stereo not given),89.25 ± 0.44
13,COc1cc2c(cc1O)CC[C@@H]1[C@@H]2CC[C@]2(C)[C@@H](O)CC[C@@H]12 [2-Methoxyestradiol],39.8 ± 1.9
14,C=CCNC1=C2C[C@@H](C)C[C@H](OC)[C@H](O)[C@@H](C)/C=C(\C)[C@H](OC(N)=O)[C@@H](OC)/C=C\C=C(/C)C(=O)NC(=CC1=O)C2=O [17-AAG (Geldanamycin)],25.3 ± 0.31
15,CO[C@H]1/C=C\C=C(/C)C(=O)NC2=CC(=O)C(NCCN(C)C)=C(C[C@@H](C)C[C@H](OC)[C@H](O)[C@@H](C)/C=C(\C)[C@@H]1OC(N)=O)C2=O [17-DMAG],16.31 ± 0.12

# From the supplement of paper PMC8960247
